Measured values taken from ChEMBL document CHEMBL4673390, “Discovery of Aminopyrazole Derivatives as Potent Inhibitors of Wild-Type and Gatekeeper Mutant FGFR2 and 3” (ACS Med Chem Lett, 2021).

Columns and labels:
in vitro [1] = details: mouse, blood
in vitro [2] = details: human, Caco-2
in vitro [3] = details: human, blood
in vivo [4] = details: CD-1, mouse, po, 10 mg/kg
in vivo [5] = details: CD-1, mouse, iv, 5 mg/kg
in vivo [6] = details: CD-1, mouse, iv, 5 mg/kg; remark: listed apart in the source
in vivo [7] = details: CD-1, mouse, po, 10 mg/kg; remark: listed apart in the source
in vivo [8] = details: CD-1, mouse, po, 10 mg/kg; remark: listed apart in the source

| Cmax at 24 h (in vivo [4]) | Vd at 24 h (in vivo [5]) | clearance at 24 h (in vivo [6]) | AUC at 24 h (in vivo [7]) | bioavailability at 24 h (in vivo [8]) | Structure (SMILES) | half-life at 2 h, 2 µM (in vitro [1]) | Papp A→B at 2 h (in vitro [2]) | half-life at 2 h, 2 µM (in vitro [3]) |
| --- | --- | --- | --- | --- | --- | --- | --- | --- |
|  |  |  |  |  | C=CC(=O)Nc1ccc(CCc2nc(Nc3cc(C)[nH]n3)cc(N3CCN(C)CC3)n2)cc1 | 2.62 h | 0.3 ×10⁻⁶ cm/s | 4.12 h |
| 103 ng/mL | 3.1 L/kg | 86.3 mL/min/kg | 400 ng·h/mL | 21% | C=CC(=O)Nc1ccc(/C=C/c2nc(Nc3cc(C(C)C)[nH]n3)cc(N3CCN(C)CC3)n2)cc1 | 1.9 h | 0.1 ×10⁻⁶ cm/s | 2.02 h |
|  |  |  |  |  | C=CC(=O)N1CCC2(CCN(c3nc(Nc4cc(C(C)C)[nH]n4)cc(N4CCN(C)CC4)n3)CC2)C1 | 2.73 h | 0.2 ×10⁻⁶ cm/s | 3.03 h |
